Measured values from patent US6799123B2, “Dissolution test equipment and method” (priority 2001, dated 2004).
Read-outs that look alike come from different tables or passages of the source.

Legend:
[1] = Single cell dissolution test (comparative); type: physicochemical; settings: flow rate optimized to match in vivo data
Description: Equipment was set up as follows: A continuous, stirred, filtration cell, such as the Amicon stirred ultrafiltration cell model 8050, available from Millipore Corporation, was equipped with a peristaltic pump to feed fluid into the cell at a rate in the range 3-10 ml/min. The filtrate from the cell was passed into a 1 cm path length flow-through quartz uv cell. The uv cell is situated in a suitable uv spectrophotometer, such as the Genesys 2, UV Spectrophotemer available from Spectronic Instruments. The filtration cell was fitted with a 3 micron filter to retain undissolved particles. 60 ml of simulated intestinal fluid pH 7.4 was added to the filtration cell, and then simulated intestinal fluid was fed into it via the pump at a flow rate of 6.5 ml/min. This was continued until the absorbance at 276 nm as measured in the uv cell was constant. 50 mg of diclofenac sodium was then added to the filtration cell. The uv absorbance at 276 nm of the effluent from the cell was recorded through the duration of the test. The concentration was calculated using a suitably determined calibration curve. In Table 1 the data from this experiment is compared with in vivo data reported in U.S. Pat. No. 4,510,128. The flow rate for this example was optimized such that the uv absorbance returned to baseline within approximately the same time (8 hours) as the in vivo data.

[2] = cited from earlier work
[3] = in vivo blood plasma concentration profile from literature; cited from earlier work

For `O=C(O)Cc1ccccc1Nc1c(Cl)cccc1Cl` [diclofenac sodium], the “time for uv absorbance of effluent to return to baseline” value [1] is listed as about 8 h, the solubility ([2]; low pH of the stomach) is listed as “essentially insoluble” and the solubility ([2]; near neutral conditions of the upper GI) is listed as “soluble”.
For `CC(C)Cc1ccc(C(C)C(=O)O)cc1` (stereo not drawn) [ibuprofen], the “t10 for in vivo data (time after Cmax to fall to 10% of Cmax)” value [3] is given as 410 min and the “tmax for in vivo data” value [3] is given as 1.17 h.
In the case of `CC(=O)Nc1ccc(O)cc1` [paracetamol], the “t10 for in vivo data (time after Cmax to fall to 10% of Cmax)” value [3] is given as 510 min and the “tmax for in vivo data” value [3] is given as 0.55 h.
In the case of `CN[C@@H](C)[C@@H](O)c1ccccc1` [pseudoephedrine], the “t10 for in vivo data (time after Cmax to fall to 10% of Cmax)” value [3] is given as 1380 min and the “tmax for in vivo data” value [3] is given as 1.5 h.
